Test results published in US10799442B2, “Compounds useful in the treatment and/or care of the skin, hair, nails, and/or mucous membranes” (LUBRIZOL ADVANCED MATERIALS, INC., priority 2015, dated 2020).

Experiments:
p63 = experiment: Activation of the pool of epidermal stem cell in reconstructed human epidermal tissue (RHE), p63 immunohistochemistry; assay type: cell-based; conditions: p63 immunofluorescence, 10 μg/ml, 24 hours
Method: Therefore, an increase in the expression of p63 would mean a higher regenerative potential compared to basal conditions.
The SkinEthic human tissue models (RHE) are removed from the agarose-nutrient solution in the multiwell plate immediately after arrival and are placed in a 6-well plate in which each well has previously be filled with SkinEthic Growth Medium (EPISKIN). After overnight incubation at 37° C., 5% CO2, the medium is removed. Then, the tissue models are incubated with the candidate peptide at 10 μg/ml at 37° C. and 5% CO2 for 24 hours. The tissue models are embedded in Tissue Teck OCT compound (Aname™). […]
The expression of p63 is evaluated by immunohistochemistry with a specific primary antibody and a fluorescently labelled secondary antibody. […] At the end of the incubation, slides are washed with PBS and are incubated with Alexa Fluor® 488 Goat anti-rabbit IgG (H+L) secondary antibody (Invitrogen, green fluorescence emission dye) 1 hour at room temperature in a dark humidified chamber. […]
Microscopical observations are performed with a Zeiss fluorescence microscope and photographs of each condition are taken with the associated camera. From each fluorescence image of p63, values of the product of Mean Intensity and Area are quantified and normalized by control (basal condition, treated with SkinEthic Growth Medium). […]

Keratin 14 = experiment: Keratins expression profile in HEKa with 1 mM CaCl2, Real Time PCR Arrays (Keratin 14); assay type: cell-based, Human; conditions: Keratin 14 mRNA, 48 hours
Method: (§1) The candidate compound is assayed for its ability to recover the basal keratinocyte state. The keratinocytes of the four layers of the epidermis present different expression patterns of keratins. Basal keratinocytes strongly express Keratin 14 and when differentiated, Keratin 10 is increased. To elucidate the keratinocyte state (basal or differentiated), the expression profile of keratins is analyzed by Real Time PCR Arrays, using a 96-well panel for use with SYBR® Green (BioRad) to detect mRNA expression levels of two keratin genes (Keratins 10 and 14) plus three housekeeping genes, and five controls, in Human Epidermal Keratinocytes from adult (HEKa) (Cascade Biologics).
(§2) HEKa cells are seeded at 6.0×10^5 cells/well in 6-well plates and incubated in culture medium Epilife with defined Growth Supplement (EDGS) (Cascade Biologics), for 24 hours at 37° C. in a water-saturated atmosphere of 95% air and 5% CO2. After 24 hours, the medium is removed and the cells are incubated with the synthetic peptide candidate at several concentrations in culture medium that contains 1 mM CaCl2) (Sigma) to induce differentiation of keratinocytes. Cells are incubated with 1 mM CaCl2) in culture medium and this provides a positive control of differentiation. Cells are incubated with culture medium only and these provide basal conditions. After 48 hours of treatment at 37° C. in a CO2 incubator, the cells are lysed directly in the wells, and RNA is purified following the protocol described on the RNeasy Mini kit (Qiagen) according to the manufacture's protocol. After RNA elution, quantification and analysis of purity of RNA samples are performed with a biophotometer (Eppendorf). […] SYBR Green binds to double-stranded DNA molecules and emits fluorescence which is quantified; the fluorescence intensity is proportional to the amount of the product in the PCR reaction. […] Fold change relative to the expression of the sample genes and reference genes is calculated using normalized expression (ΔΔ(Ct)) method using CFX Manager Software (BioRad).

Keratin 10 = experiment: Keratins expression profile in HEKa with 1 mM CaCl2, Real Time PCR Arrays (Keratin 10); assay type: cell-based, Human; conditions: Keratin 10 mRNA, 48 hours
Method: as §1, §2

Fold induction respect to basal conditions (p63; 1 experiment): 1.63 ± 0.16 | Fold induction respect to basal conditions (p63; mean of four experiments): 2.11 ± 0.23 | Fold induction respect to positive control of differentiation (Keratin 14; 1 mM CaCl2, 0.001 mg/ml): 1.29 ± 0.15 | Fold induction respect to positive control of differentiation (Keratin 14; 1 mM CaCl2, 0.005 mg/ml): 1.36 ± 0.15 | Fold induction respect to positive control of differentiation (Keratin 14; 1 mM CaCl2, 0.01 mg/ml): 1.30 ± 0.09 | Fold induction respect to positive control of differentiation (Keratin 10; 1 mM CaCl2, 0.001 mg/ml): 0.68 ± 0.04 | Fold induction respect to positive control of differentiation (Keratin 10; 1 mM CaCl2, 0.005 mg/ml): 0.60 ± 0.02 | Fold induction respect to positive control of differentiation (Keratin 10; 1 mM CaCl2, 0.01 mg/ml): 0.72 ± 0.06
Substance: Ac-QEMRMQ-OH [DD14024, Ac-Gln-Glu-Met-Arg-Met-Gln-OH]
